Measured values published in US20160362418A1, “CARBOXAMIDE-SUBSTITUTED XANTHENE DYES” (priority 2015, published 2016).

Assay: Spectral properties of fluorescent dyes (Abs/Em)
Format: physicochemical
Settings: for Abs: absorbance maximum, first number of Abs/Em; for Em: emission maximum, second number of Abs/Em
From the text: The spectral properties of dyes can be tuned by modifying the rhodamine core of dyes.

Abs	Em	SMILES
518 nm	539 nm	CC(=O)O.CN(CCS(=O)(=O)O)C(=O)c1ccccc1-c1c2ccc(=N)cc-2oc2cc(N)ccc12 [Compound 1]
601 nm	623 nm	CC(=O)O.CN(CCS(=O)(=O)[O-])C(=O)c1ccccc1C1=c2cc3c(cc2Oc2cc4c(cc21)C(CS(=O)(=O)O)=CC(C)(C)N4C)=[N+](C)C(C)(C)C=C3CS(=O)(=O)O [Compound 6]
